{"source": "patent US20040053859A1", "about": "“Preventive or therapeutic agent for cancer containing cyanidin compound as active ingredient” (priority 2000, published 2004)", "key": {"large intestine cancer": {"tested_on": "large intestine cancer", "assay": "carcinostatic effect against PhIP-promoted, DMH-initiated large intestine cancer in rats (macroscopic pathologic examination)", "type": "in vivo, F344/DuCrj male rats", "settings": "DMH 20 mg/kg s.c. once a week for 4 weeks, then feed for 32 weeks, group 2 PhIP 200 ppm only, group 3 PhIP 200 ppm + PCC 5%", "description": "Using DMH (1,2-dimethylhydradinedihydrochloride, manufactured by Tokyo Kasei Kogyo Co., Ltd., Lot. FIH01-UR) as an initiator of large intestine cancer, the carcinostatic effect of a purple corn pigment (manufactured. by San-Ei gen F.F.I., Inc. Lot. 990519, containing 10.8% of the compound of the formula (III) and 6.5% of the compound of the formula (IV), hereinafter referred to as PCC) was examined against the carcinogenesis promoting effect of PhIP (2-amino-1-methyl-6-phenylimidazo [4,5-b] pyridine (Toronto Research Chemical Inc., Lot. 5-YCX-55-2).\n(§1) F344/DuCrj male rats (Charles River Japan Inc.) were used as test animals. The rats were subjected to a subcutaneous administration of DMH of 20 mg/kg once a week, for 4 weeks. They were divided into a group 1 fed with a basic feed (labo MR stock, manufactured by Nihon Nosan Kogyo KK), a group 2 fed with PhIP (200 ppm) only, and a group 3 fed with a mixture of PhIP (200 ppm) and PCC (5%). The rats (20 per group) were allowed to take the feed freely for 32 weeks.\nThe rats alive at the end of the experiment were fasted and then bled for euthanasia under deep anesthesia. They were dissected together with the dead rat of the group 2 to macroscopically examine tumorigenesis in various organs in the thoracic cavity and the abdominal cavity.\nIn every rat, tumorigenesis was not observed in other organs than the large intestine (cecum, colon, rectum). The tumor generated in the large intestine was recognized as cancer by the macroscopic pathologic examination."}, "[1]": {"assay": "survival, clinical manifestation, weight and water intake of rats during feeding of test substances", "type": "in vivo, F344/DuCrj male rats", "procedure": "as §1\nWith an electronic balance (LC2200, manufactured by Sartorius), the weight of each rat was measured once a week until 14th week after initiation of the experiment, and thereafter measured once every two weeks. The feed intake amount of each rat was also measured once a week until 14th week, and thereafter measured once every other week in the same manner as the weight measurement, except that the feed intake amount for two days was measured.\nWith an electronic balance (LC2200, manufactured by Sartorius), an intake amount of water for two days was measured once a week until 14th week, and thereafter measured once every other week."}}, "data": [{"smiles": "Cn1c(N)nc2ncc(-c3ccccc3)cc21", "note": "[PhIP, 2-amino-1-methyl-6-phenylimidazo[4,5-b]pyridine]", "values": [{"measurement": "Number of rats having tumor", "setting": "large intestine cancer; 20 rats per group", "result": 17}, {"measurement": "Numbers of tumors", "setting": "large intestine cancer; 20 rats per group", "result": 48}, {"measurement": "Number of tumors/number of rats having tumor", "setting": "large intestine cancer", "result": 2.82}, {"measurement": "water intake amount", "setting": "[1]; 5th and 6th weeks, group 2 PhIP 200 ppm, group 3 PhIP 200 ppm + PCC 5%, group 1 about 20", "result": "about 19 g/animal/day"}, {"measurement": "survival until the end of the experiment", "setting": "[1]; 32 weeks feeding after DMH, 20 rats per group", "result": "one in the group 2 died during the experiment"}, {"measurement": "weight of the rats reached during administration of test substances (from about 230 g)", "setting": "[1]; group 2 PhIP 200 ppm, group 3 PhIP 200 ppm + PCC 5%, group 1 basic feed about 360 g", "result": "~315", "unit": "g"}]}]}
